Data reported in patent US12304890B2, “R-type pyridyloxycarboxylic acid, salt and ester derivative thereof, and preparation method therefor, and herbicidal composition and application thereof” (Qingdao Kingagroot Chemical Compound Co., Ltd., priority 2018, dated 2025).

Legend:
Format in all cases: in vivo
[1] = system: Digitaria sanguinalis; experiment: Post-emergence test experiment, Digitaria sanguinalis; settings: 1000 g a.i./ha, 3 weeks in greenhouse, fresh weight inhibition
Description: (§1) The above described growth inhibition rate is fresh weight inhibition rate.
(§2) Post-emergence test experiment: Monocotyledonous and dicotyledonous weed seeds and main crop seeds (i. e. wheat, corn, rice, soybean, cotton, oilseed, millet and sorghum.) were put into a plastic pot loaded with soil. Then covered with 0.5-2 cm soil, the seeds were allowed to grow in good greenhouse environment. The test plants were treated at 2-3 leaf stage 2 weeks after sowing. The test compounds of the invention were dissolved with acetone respectively, then added with tween-80, and using 1.5 liters per hectare of an emulsible concentrate of methyl oleate as a synergist, and diluted by certain amount of water to certain concentration. The solution was sprayed to the plants with a sprayer. Then the plants were cultured for 3 weeks in the greenhouse, and the experiment result of weed controlling effect was listed in tables 4-5.

[2] = system: Echinochloa crusgalli; experiment: Post-emergence test experiment, Echinochloa crusgalli; settings: 1000 g a.i./ha, 3 weeks in greenhouse, fresh weight inhibition
Description: as §1, §2

[3] = system: Monocotyledonous and dicotyledonous weed seeds and main crop seeds; experiment: Post-emergence test experiment, other weeds and crops (Table 4, 1000 g a.i./ha); settings: 3 weeks in greenhouse, fresh weight inhibition
Outline: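 Growth inhibition is scored on fresh weight. Spray solutions were made in acetone with tween-80, diluted in water, plus 1.5 L/ha methyl oleate emulsible concentrate. Plants from greenhouse-grown weed and crop seeds were treated post-emergence at 2-3 leaves, 2 weeks after sowing.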

Compound	Activity level (growth inhibition rate), Digitaria sanguinalis [1]	Activity level (growth inhibition rate), Echinochloa crusgalli [2]	Activity level (growth inhibition rate), Abutilon theophrasti Medic. [3]	Activity level (growth inhibition rate), Galium aparine [3]	Activity level (growth inhibition rate), Monochoria Vaginalis [3]
CC(C)=NOCCOC(=O)[C@@H](C)Oc1nc(C)c(Cl)c(N)c1Cl [Compound 2-386]	5 (Level 5: the growth inhibition rate is greater than 85%)	5 (Level 5: the growth inhibition rate is greater than 85%)	5 (Level 5: the growth inhibition rate is greater than 85%)	5 (Level 5: the growth inhibition rate is greater than 85%)	5 (Level 5: the growth inhibition rate is greater than 85%)
COC(=O)CSC(=O)C(C)Oc1nc(F)c(Cl)c(N)c1Cl (stereo not shown) [Compound 2-290]	5 (Level 5: the growth inhibition rate is greater than 85%)	5 (Level 5: the growth inhibition rate is greater than 85%)	5 (Level 5: the growth inhibition rate is greater than 85%)	5 (Level 5: the growth inhibition rate is greater than 85%)	5 (Level 5: the growth inhibition rate is greater than 85%)
COCCCSC(=O)C(C)Oc1nc(F)c(Cl)c(N)c1Cl (stereo not shown) [Compound 2-272]	5 (Level 5: the growth inhibition rate is greater than 85%)	5 (Level 5: the growth inhibition rate is greater than 85%)	5 (Level 5: the growth inhibition rate is greater than 85%)	5 (Level 5: the growth inhibition rate is greater than 85%)	5 (Level 5: the growth inhibition rate is greater than 85%)
C[C@@H](Oc1nc(F)c(Cl)c(N)c1Cl)C(=O)OCCCl [Compound 2-277]	5 (Level 5: the growth inhibition rate is greater than 85%)	5 (Level 5: the growth inhibition rate is greater than 85%)	5 (Level 5: the growth inhibition rate is greater than 85%)	5 (Level 5: the growth inhibition rate is greater than 85%)	5 (Level 5: the growth inhibition rate is greater than 85%)
CCCCCOC(=O)[C@@H](C)Oc1nc(F)c(Cl)c(N)c1Cl [Compound 2-85]	5 (Level 5: the growth inhibition rate is greater than 85%)	5 (Level 5: the growth inhibition rate is greater than 85%)	5 (Level 5: the growth inhibition rate is greater than 85%)	5 (Level 5: the growth inhibition rate is greater than 85%)	5 (Level 5: the growth inhibition rate is greater than 85%)
C[C@@H](Oc1nc(F)c(Cl)c(N)c1Cl)C(=O)SCc1ccccc1C#N [Compound 2-334]	5 (Level 5: the growth inhibition rate is greater than 85%)	5 (Level 5: the growth inhibition rate is greater than 85%)	5 (Level 5: the growth inhibition rate is greater than 85%)	5 (Level 5: the growth inhibition rate is greater than 85%)	5 (Level 5: the growth inhibition rate is greater than 85%)
CC(Oc1nc(F)c(Cl)c(N)c1Cl)C(=O)SCc1cccc(C(F)(F)F)c1 (stereo not shown) [Compound 2-330]	5 (Level 5: the growth inhibition rate is greater than 85%)	5 (Level 5: the growth inhibition rate is greater than 85%)	5 (Level 5: the growth inhibition rate is greater than 85%)	5 (Level 5: the growth inhibition rate is greater than 85%)	5 (Level 5: the growth inhibition rate is greater than 85%)
CC(C)COC(=O)[C@@H](C)Oc1nc(F)c(Cl)c(N)c1Cl [Compound 2-79]	5 (Level 5: the growth inhibition rate is greater than 85%)	5 (Level 5: the growth inhibition rate is greater than 85%)	5 (Level 5: the growth inhibition rate is greater than 85%)	5 (Level 5: the growth inhibition rate is greater than 85%)	5 (Level 5: the growth inhibition rate is greater than 85%)
CC(Oc1nc(F)c(Cl)c(N)c1Cl)C(=O)OCc1ccc(C(F)(F)F)cc1 (stereo not shown) [Compound 2-331]	5 (Level 5: the growth inhibition rate is greater than 85%)	5 (Level 5: the growth inhibition rate is greater than 85%)	5 (Level 5: the growth inhibition rate is greater than 85%)	5 (Level 5: the growth inhibition rate is greater than 85%)	5 (Level 5: the growth inhibition rate is greater than 85%)
CC(N)CN.CC(Oc1nc(F)c(Cl)c(N)c1Cl)C(=O)S (stereo not shown) [Compound 2-17]	5 (Level 5: the growth inhibition rate is greater than 85%)	5 (Level 5: the growth inhibition rate is greater than 85%)	5 (Level 5: the growth inhibition rate is greater than 85%)	5 (Level 5: the growth inhibition rate is greater than 85%)	5 (Level 5: the growth inhibition rate is greater than 85%)
C1COCCN1.CC(Oc1nc(F)c(Cl)c(N)c1Cl)C(=O)O (stereo not shown) [Compound 2-24]	5 (Level 5: the growth inhibition rate is greater than 85%)	5 (Level 5: the growth inhibition rate is greater than 85%)	5 (Level 5: the growth inhibition rate is greater than 85%)	5 (Level 5: the growth inhibition rate is greater than 85%)	5 (Level 5: the growth inhibition rate is greater than 85%)
CC(Oc1nc(F)c(Cl)c(N)c1Cl)C(=O)SCc1ccccc1F (stereo not shown) [Compound 2-309]	5 (Level 5: the growth inhibition rate is greater than 85%)	5 (Level 5: the growth inhibition rate is greater than 85%)	5 (Level 5: the growth inhibition rate is greater than 85%)	5 (Level 5: the growth inhibition rate is greater than 85%)	5 (Level 5: the growth inhibition rate is greater than 85%)
CCCCC(C)SC(=O)[C@@H](C)Oc1nc(F)c(Cl)c(N)c1Cl (stereo partly shown) [Compound 2-114]	5 (Level 5: the growth inhibition rate is greater than 85%)	5 (Level 5: the growth inhibition rate is greater than 85%)	5 (Level 5: the growth inhibition rate is greater than 85%)	5 (Level 5: the growth inhibition rate is greater than 85%)	5 (Level 5: the growth inhibition rate is greater than 85%)
COC(=O)C(NC(=O)OC(C)(C)C)OC(=O)C(C)Oc1nc(F)c(Cl)c(N)c1Cl (stereo not shown) [Compound 2-372]	5 (Level 5: the growth inhibition rate is greater than 85%)	5 (Level 5: the growth inhibition rate is greater than 85%)	5 (Level 5: the growth inhibition rate is greater than 85%)	5 (Level 5: the growth inhibition rate is greater than 85%)	5 (Level 5: the growth inhibition rate is greater than 85%)
